Ends that are not written are not given here.
How the values were obtained:
human uPA = molecular target: T1, human uPA (Homo sapiens, UniProt P00749); experiment: Inhibition of uPA catalytic activity, fluorogenic substrate; type: biochemical; settings: PEP333 leader-core peptide, ProcM-modified; 1.5 nM human uPA; 50 µM Z-Gly-Gly-Arg 7-amido-4-methylcoumarin; 10 mM Tris-HCl pH 7.4, 5% DMSO; 25°C, 30 min; fluorescence 355/460 nm; experiment repeated three times; read-out: inhibitory constant Ki
T1 construct: purchased ProsPec enz-264-c
Description: Determination of inhibitory activit y of lanthipeptides
The inhibitory activities of ProcM-modified and non- modified anti-uPA peptides were determined as previously described2. In brief, 1.5 nM human uPA (ProsPec, # enz-264- c; purified by size exclusion chromatography) were incubated with 50 µM of the fluorogenic substrate Z-Gly-Gly-Arg 7 -am ido-4-methylcoumarin hydrochloride (Santa Cruz Biotechnology, # sc-208012) and different concentrations of anti-uPA peptides. Substrate and peptides were diluted in 10 mM Tris-HCl (pH 7.4), 150 mM NaCl, 10 mM MgCl2, 1 m M CaCl2, 0.1% (w v-1) BSA, 0.01% Triton X-100, 5% (v v-1) DMSO buff er. The uPA activity was measured by monitoring the change in fluorescence intensity after an incubation step at 25°C for 30 minutes (black 96 well plate with clear flat bottom, Corning CellBIND, # 3340; excitation at 355 nm, emission recorded at 460 nm, Tecan M200pro, […]). A […]
Anal ysis of phage-selected peptides by mass spectrometry
Samples were analyzed by FTMS using a Shimadzu UFLC system (Shimadzu, Den Bosch, The Netherlands) coupled on- line via the HESI interface with a LTQ–Orbitrap- XL mass spectrometer (Thermo Fisher Scientific., San Jose, CA). Samples were loaded onto an Acquity UPLC, BEH C18. 50 x 2.1mm, 1.7µM (Waters, Ireland). […]

streptavidin = experiment: ELISA for streptavidin binding of purified His6-tagged leader-core peptides; settings: plates coated with 100 nM streptavidin; for streptavidin binding, effect of reducing conditions: 10 mM DTT vs non-reducing; for streptavidin binding, dependence on ProcM co-expression: peptide produced with or without ProcM, 1 h room temperature, anti-His detection
Description: Peptide candidates identified by phage display were produced and purified as leader-core peptides as described above. 384 well Maxisorp plates were coated with uPA or streptavidin (100 nM each) overnight at 4 °C. After washing and blocking the plates as described above, serial dilutions of the peptide preparations in PBST containing 0.5% (w v^−1) BSA (and 10 mM DTT for anti-streptavidin replicates) were added in duplicate, and plates incubated for 1 h at room temperature, shaking. Detection of bound peptides with AP-conjugated anti-His IgG was performed as described above.

[1] = system: nisin-sensitive L. lactis NZ9000; experiment: Growth inhibition, filter-disc bioactivity assay (nisin); type: cell-based; settings: NisA produced as C-terminal MBP fusion in E. coli with NisBC; 20 µM leader-core peptide, trypsin treated; 40 µl on filter disc
Excerpt: (§1) MBP IEGR His6 leader core peptide
(§2) LctA-core […] NisA-core […]
(§3) ProcM enz yme NisBC enzymes […]
(§4) modified KGGSGVIHAbuIAHEANMNAWQFVFDhbAAS modified IDhbAIDhaLAAbuPGAKAbuGALMGANMKAbuAAbuAHASIHVDhaK […]
(§5) 1: PBS + trypsin 1: PBS + trypsin
(§6) 2: Authentic lacticin 481 2: Authentic Nisin
(§7) 3: MBP_His6_P roc A 3. 3-LctA + trypsin 3: MBP_His6_NisA + trypsin
(§8) 4: MBP_His6_P roc A 3. 3-Lc tA + ProcM + trypsin 4: MBP_His6_NisA + NisBC + trypsin
(§9) Supplementary Figure 3 Bioactivit y assay of lanthipeptides produced as C-term inal fusions to MBP.
(§10) (a) Schem atic drawing of the MBP-fusion vector used for expression of a chim eric peptide consisting of the ProcA3.3 leader sequence fused to the core of LctA (left panel) and NisA (right panel; full sequences shown in Supplem entary Table 5). The sequence of the unm odified and m odified core peptides as reported in the literature are indicated1. The arrow indicates a tr ypsin cleavage site used to release the m ature core peptide. (b) Growth inhibition of lacticin 481- sensitive L. lactis cremonis (HP) by filter- disc spotted peptide solutions. (1) Trypsin treated PBS (negative control); (2) authentic lacticin 481 (positive control); (3) ProcA3.3-LctA produced as C-term inal MBP fusion in E. coli without ProcM co- expression and treated with tr yps in; (4) ProcA3.3- LctA produced as C-term inal MBP fusion in E. coli with ProcM co-ex pression and treated with tr ypsin. […]

[2] = system: lacticin 481-sensitive L. lactis cremonis (HP); experiment: Growth inhibition, filter-disc bioactivity assay (lacticin 481); type: cell-based, L. lactis subsp. cremonis (HP); settings: ProcA3.3-LctA produced as C-terminal MBP fusion in E. coli with ProcM; 20 µM leader-core peptide, trypsin treated; 40 µl on filter disc
Excerpt: as §1, §2, §3, §4, §5, §6, §7, §8, §9, §10

Row | Substance | streptavidin binding, effect of reducing conditions (streptavidin) | streptavidin binding, dependence on ProcM co-expression (streptavidin) | also measured
1 | AICQIADATRTGENRKCLAAGPHHHHHH (also: sidechain bridge or staple (positions not given here)) [PEP333] |  |  | Ki (human uPA): 564 nM
2 | ANCIQHLTHSPTVHKYFCPAAGPHHHHHH (also: bicyclic or more (positions not given here)) [PEP331] | only a slight reduction in binding was noticed in a reducing environment | strictly dependent on post-translational modifications introduced by ProcM | 
3 | IDhbAIDhaLAAbuPGAKAbuGALMGANMKAbuAAbuAHASIHVDhaK (bicyclic or more) [nisin, antimicrobial lantibiotic, expressed as C-terminal MBP fusion with NisBC] |  |  | antimicrobial activity [1]: confirmed their antimicrobial activity
4 | KGGSGVIHAbuIAHEANMNAWQFVFDhbAAS (bicyclic or more) [lacticin 481] |  |  | antimicrobial activity [2]: confirmed their antimicrobial activity
5 | TNCGRKMSATYSGQKMYCIAAGPHHHHHH (also: bicyclic or more (positions not given here)) [PEP330] | reducing conditions had only minor effects | bound streptavidin regardless of ProcM co-expression | 

Source: article PMC5686179, “Phage display and selection of lanthipeptides on the carboxy-terminus of the gene-3 minor coat protein” (Nature Communications, 2017)
